Laboratory results: patent US5646184A, “Preparation for external application to the skin and novel benzoic acid derivatives” (Kao Corporation, priority 1993, dated 1997)

Each compound was assayed on skin tissue containing sebaceous glands (sebum synthesis) (assay: Percent sebum synthesis inhibition in cultured hamster auricle skin tissue containing sebaceous glands (radioactive sodium acetate incorporation into lipids; method of Hall et al.)). Conditions: Mesocricetus auratus; concentration 8 μM; 3 hours culture; average of 6 animals.
Type: cell-based
Method: The following test was conducted to evaluate the sebum synthesis inhibitory action of the benzoic acid derivatives according to the present invention.
Measurement of sebum synthesis was made in accordance with the method of Hall, et al. (cf. Arch. Dermatol. Res., 275:1-7 (1983)). The skin tissue (diameter: 4 mm) containing sebaceous glands, taken from the auricle of a male hamster, was cultured in a Krebes-Ringer's phosphate-buffered solution containing radioactive sodium acetate for 3 hours. The tissue was hydrolyzed and extracted with hexane. The amount of the radioactive labelled lipids in the hexane fraction was measured with a liquid scintillation counter to obtain the amount of the synthesized sebum. The skin tissue obtained from the left auricle of a hamster was tested using a Krebes-Ringer's phosphate-buffered solution, while that obtained from the right one of the same hamster was tested using a Krebes-Ringer's phosphate-buffered solution containing each of the compounds shown in Tables 1 and 2, and a percent synthesis inhibition was obtained according to the following numerical formula.
Percent sebum synthesis inhibition (%) =
100 - (amount of sebum synthesized in the presence of
a test compound)/(amount of sebum synthesized in the
absence of a test compound) × 100

Row | SMILES | inhibition at 8 µM
1 | CCCCCCOc1ccc(C(=O)O)c(O)c1 [Compound 19, 4-n-hexyloxy-2-hydroxybenzoic acid] | 58%
2 | CCCCCCCCOc1ccc(C(=O)O)c(O)c1 [Compound 20, 2-hydroxy-4-n-octyloxybenzoic acid] | 26%
3 | CCCCCCCCCCOc1ccc(C(=O)O)c(O)c1 [Compound 21, 4-n-decyloxy-2-hydroxybenzoic acid] | 13%
4 | CCCCC(CC)COc1ccc(O)c(C(=O)O)c1 (centres unmarked) [Compound 22, 5-(2-ethylhexyloxy)-2-hydroxybenzoic acid] | 84%
5 | CC(CCOc1ccc(O)c(C(=O)O)c1)CC(C)(C)C (centres unmarked) [Compound 23, 2-hydroxy-5-(3,5,5-trimethylhexyloxy)benzoic acid] | 83%
6 | O=C(O)c1cc(OCCC2CCCCC2)ccc1O [Compound 24, 5-(2-cyclohexylethoxy)-2-hydroxybenzoic acid] | 78%
7 | CCCCCCOc1ccc(O)c(C(=O)O)c1 [Compound 25, 5-n-hexyloxy-2-hydroxybenzoic acid] | 80%
8 | CCCCC(CC)COc1ccc(C(=O)NCCO)c(O)c1 (centres unmarked) [Compound 27, N-(2-Hydroxyethyl)-4-(2-ethylhexyloxy)-2-hydroxybenzamide] | 15%
9 | CC(=O)Oc1cc(OCC2CCCCC2)ccc1C(=O)O [Compound 29, 2-acetoxy-4-cyclohexylmethoxybenzoic acid] | 48%

Same assay, conditions: Mesocricetus auratus; concentration 10 μM; 3 hours culture; average of 6 animals

Row | SMILES | inhibition at 10 µM
10 | CCCCC(CC)COc1ccc(C(=O)O)c(O)c1 (centres unmarked) [Compound 14, 4-(2-ethylhexyloxy)-2-hydroxybenzoic acid] | 60%
11 | CC(CCOc1ccc(C(=O)O)c(O)c1)CC(C)(C)C (centres unmarked) [Compound 15, 2-hydroxy-4-(3,5,5-trimethylhexyloxy)benzoic acid] | 66%
12 | O=C(O)c1ccc(OCC2CCCCC2)cc1O [Compound 16, 4-cyclohexylmethoxy-2-hydroxybenzoic acid] | 44%
13 | O=C(O)c1ccc(OCCC2CCCCC2)cc1O [Compound 17, 4-(2-cyclohexylethoxy)-2-hydroxybenzoic acid] | 57%
14 | CC(C)=CCCC(C)CCOc1ccc(C(=O)O)c(O)c1 (centres unmarked) [Compound 18, 4-(3,7-dimethyl-6-octenyloxy)-2-hydroxybenzoic acid] | 45%
15 | CC(C)=CCC/C(C)=C/COc1ccc(C(=O)O)c(O)c1 [Compound 39, 4-{(2E)-3,7-dimethylocta-2,6-dienyloxy}-2-hydroxybenzoic acid] | 52%
16 | CC(C)=CCC/C(C)=C/COc1ccc(O)c(C(=O)O)c1 [Compound 40, 5-{(2E)-3,7-dimethylocta-2,6-dienyloxy}-2-hydroxybenzoic acid] | 72%
17 | CC(C)=CCC/C(C)=C/COc1ccc(C(=O)NCCO)c(O)c1 [Compound 46, N-(2-hydroxyethyl)-4-{(2E)-3,7-dimethylocta-2,6-dienyloxy}-2-hydroxybenzamide] | 28%

Same assay, conditions: Mesocricetus auratus; concentration 100 μM; 3 hours culture; average of 6 animals

Row | SMILES | inhibition at 100 µM
18 | CCCCC(CC)COc1ccc(C(=O)OC)c(O)c1 (centres unmarked) [Compound 1, methyl 4-(2-ethylhexyloxy)-2-hydroxybenzoate] | 32%
19 | CC(C)=CCC/C(C)=C/COc1ccc(C(=O)O)c(O)c1 [Compound 39, 4-{(2E)-3,7-dimethylocta-2,6-dienyloxy}-2-hydroxybenzoic acid] | 93%
20 | CC(C)=CCC/C(C)=C/COc1cccc(C(=O)O)c1O [Compound 41, 3-{(2E)-3,7-dimethylocta-2,6-dienyloxy}-2-hydroxybenzoic acid] | 91%
21 | CC(C)=CCC/C(C)=C/COc1cc(O)cc(C(=O)O)c1 [Compound 42, 3-{(2E)-3,7-dimethylocta-2,6-dienyloxy}-5-hydroxybenzoic acid] | 70%
22 | CC(C)=CCC/C(C)=C/CC/C(C)=C/COc1ccc(C(=O)O)c(O)c1 [Compound 43, 2-hydroxy-4-{(2E,6E)-3,7,11-trimethyl-2,6,10-dodecatrienyloxy}benzoic acid] | 47%
23 | CC(=O)Oc1cc(OC/C=C(\C)CCC=C(C)C)ccc1C(=O)O [Compound 45, 2-acetoxy-4-{(2E)-3,7-dimethylocta-2,6-dienyloxy}benzoic acid] | 47%
